Measured values taken from patent US20240269298A1, “PHOSPHONYL DERIVATIVE, AND COMPOSITION AND PHARMACEUTICAL APPLICATION THEREOF” (XIZANG HAISCO PHARMACEUTICAL CO., LTD., priority 2021, published 2024).
Where two headings read alike, the source gives them in different places.

System: NCI-H1975 (EGFR-L858R-T790M) cells
Test: Inhibitory activity on proliferation of NCI-H1975 (EGFR-L858R-T790M) cells (CTG, 72 h)
Type: cell-based
Settings: Homo sapiens
Method: NCI-H1975 (EGFR-L858R-T790M) and A431 (EGFR-WT) cells were purchased from ATCC and cultured in an incubator at 37° C. with 5% CO2, and the culture mediums were RPMI1640+10% FBS and DMEM+10% FBS, respectively. On the first day, NCI-H1975 (EGFR-L858R-T790M) and A431 (EGFR-WT) cells in the logarithmic phase were collected, and viable cells were counted using an automatic cell analyzer (countstar). The cell suspensions were adjusted with the culture mediums and plated on a 96-well cell culture plate at 1000 cells/well for NCI-H1975 (EGFR-L858R-T790M) cells and at 3000 cells/well for A431 cells. The next day, the culture mediums were aspirated, and 90 μL of fresh culture mediums and 10 μL of the compounds at different concentrations were added to each well, wherein the final concentration of DMSO in each well was 0.1%. The plate was cultured in the incubator at 37° C. with 5% CO2 for 72 hours. After 72 hours of drug treatment, 50 μL of CTG solution (promega, G7572), which was already pre-melted and equilibrated to room temperature, was added to each well, and the mixtures were uniformly mixed for 2 min using a microplate shaker. The plate was placed at room temperature for 10 min, and then […] signal values were measured using a microplate reader (PHERAstar FSX).
Surviving cells % was calculated based on Vsample/Vvehicle control×100%, wherein Vsample was the readout of the drug-treated group, and Vvehicle control was the average value of the vehicle control group. Using the origin 9.2 software and nonlinear regression model, S-shaped dose-survival curves were plotted, and IC50 values were calculated.

[1] = read-out: IC50 (value in brackets)

IC50 (read-out: IC50 (class symbol)) | IC50 [1] | SMILES
100 to 500 nM | 125 nM | COc1cc(N2CCC3(CCN(Cc4cccc(NC5CCC(=O)NC5=O)c4)CC3)CC2)c(-c2cnn(C)c2)cc1Nc1ncc(Br)c(Nc2ccc(-c3ccccc3)cc2P(C)(C)=O)n1 (centres unmarked) [Compound 129, 3-((3-((9-(4-((5-bromo-4-((3-(dimethylphosphoryl)-[1,1′-biphenyl]-4-yl)amino)pyrimidin-2-yl)amino)-5-methoxy-2-(1-methyl-1H-pyrazol-4-yl)phenyl)-3,9-diazaspiro[5.5]undecan-3-yl)methyl)phenyl)amino)piperidine-2,6-dione]
< 100 nM | 10 nM | COc1cc(N2CCC(N3CCC4(CCCN(c5ccc6c(c5)C(=O)N(C5CCC(=O)NC5=O)C6=O)C4)CC3)CC2)c(-c2cnn(C)c2)cc1Nc1ncc(Br)c(Nc2ccc3nccnc3c2P(C)(C)=O)n1 (centres unmarked) [Compound 32, 5-(9-(1-(4-((5-bromo-4-((5-(dimethylphosphoryl)quinoxalin-6-yl)amino)pyrimidin-2-yl)amino)-5-methoxy-2-(1-methyl-1H-pyrazol-4-yl)phenyl)piperidin-4-yl)-2,9-diazaspiro[5.5]undecan-2-yl)-2-(2,6-dioxopiperidin-3-yl)isoindoline-1,3-dione]
< 100 nM | 21 nM | COc1cc(N2CCC(CN3CCN(c4ccc(NC5CCC(=O)NC5=O)cc4F)CC3)CC2)c(-c2cnn(C)c2)cc1Nc1ncc(Cl)c(Nc2ccc(F)cc2P(C)(C)=O)n1 (centres unmarked) [Compound 159, 3-((4-(4-((1-(4-((5-chloro-4-((2-(dimethylphosphoryl)-4-fluorophenyl)amino)pyrimidin-2-yl)amino)-5-methoxy-2-(1-methyl-1H-pyrazol-4-yl)phenyl)piperidin-4-yl)methyl)piperazin-1-yl)-3-fluorophenyl)amino)piperidine-2,6-dione]
100 to 500 nM | 111 nM | COc1cc(N2CCN(c3ccc4c(c3)C(=O)N(C3CCC(=O)NC3=O)C4=O)CC2)c(-c2cnn(C)c2)cc1Nc1ncc(Br)c(Nc2ccccc2P(C)(C)=O)n1 (centres unmarked) [Compound 169, 5-(4-(4-((5-bromo-4-((2-(dimethylphosphoryl)phenyl)amino)pyrimidin-2-yl)amino)-5-methoxy-2-(1-methyl-1H-pyrazol-4-yl)phenyl)piperazin-1-yl)-2-(2,6-dioxopiperidin-3-yl)isoindoline-1,3-dione]
< 100 nM | 71 nM | COc1cc(N2CCN(CC3CCN(c4ccc(C(=O)NC5CCC(=O)NC5=O)nc4)CC3)CC2)c(-c2cnn(C)c2)cc1Nc1ncc(Cl)c(Nc2ccc(-c3ccccc3)cc2P(C)(C)=O)n1 (centres unmarked) [Compound 124, 5-(4-((4-(4-((5-chloro-4-((3-(dimethylphosphoryl)-[1,1′-biphenyl]-4-yl)amino)pyrimidin-2-yl)amino)-5-methoxy-2-(1-methyl-1H-pyrazol-4-yl)phenyl)piperazin-1-yl)methyl)piperidin-1-yl)-N-(2,6-dioxopiperidin-3-yl)picolinamide]
100 to 500 nM | – | COc1cc(N2CCC(N3CCC(CN4CCCC5(CCN(c6ccc7c(c6)C(=O)N(C6CCC(=O)NC6=O)C7=O)CC5)C4)CC3)CC2)c(-c2cnn(C)c2)cc1Nc1ncc(Cl)c(Nc2ccc3nccnc3c2P(C)(C)=O)n1 (centres unmarked) [Compound 17, 5-(2-((1′-(4-((5-chloro-4-((5-(dimethylphosphoryl)quinoxalin-6-yl)amino)pyrimidin-2-yl)amino)-5-methoxy-2-(1-methyl-1H-pyrazol-4-yl)phenyl)-[1,4′-bipiperidin]-4-yl)methyl)-2,9-diazaspiro[5.5]undecan-9-yl)-2-(2,6-dioxopiperidin-3-yl)isoindoline-1,3-dione]
< 100 nM | 33 nM | COc1cc(N2CCC(N3CCN(CC4CCN(c5cc6c(cc5F)C(=O)N(C5CCC(=O)NC5=O)C6=O)CC4)CC3)CC2)c(-c2cnn(C)c2)cc1Nc1ncc(Br)c(Nc2ccc3nccnc3c2P(C)(C)=O)n1 (centres unmarked) [Compound 29, 5-(4-((4-(1-(4-((5-bromo-4-((5-(dimethylphosphoryl)quinoxalin-6-yl)amino)pyrimidin-2-yl)amino)-5-methoxy-2-(1-methyl-1H-pyrazol-4-yl)phenyl)piperidin-4-yl)piperazin-1-yl)methyl)piperidin-1-yl)-2-(2,6-dioxopiperidin-3-yl)-6-fluoroisoindoline-1,3-dione]
< 100 nM | 28 nM | COc1cc(N2CCC(N3CCC4(CCCN(c5cc6c(cc5F)C(=O)N(C5CCC(=O)NC5=O)C6=O)C4)CC3)CC2)c(-c2cnn(C)c2)cc1Nc1ncc(Br)c(Nc2ccc3nccnc3c2P(C)(C)=O)n1 (centres unmarked) [Compound 33, 5-(9-(1-(4-((5-bromo-4-((5-(dimethylphosphoryl)quinoxalin-6-yl)amino)pyrimidin-2-yl)amino)-5-methoxy-2-(1-methyl-1H-pyrazol-4-yl)phenyl)piperidin-4-yl)-2,9-diazaspiro[5.5]undecan-2-yl)-2-(2,6-dioxopiperidin-3-yl)-6-fluoroisoindoline-1,3-dione]
< 100 nM | 75 nM | COc1cc(N2CCC3(CCN(CC4CCN(c5ccc6c(c5)C(=O)N(C5CCC(=O)NC5=O)C6=O)CC4)CC3)CC2)c(C2CC2)cc1Nc1ncc(Br)c(Nc2ccc3nccnc3c2P(C)(C)=O)n1 (centres unmarked) [Compound 3, 5-(4-((9-(4-((5-bromo-4-((5-(dimethylphosphoryl)quinoxalin-6-yl)amino)pyrimidin-2-yl)amino)-2-cyclopropyl-5-methoxyphenyl)-3,9-diazaspiro[5.5]undecan-3-yl)methyl)piperidin-1-yl)-2-(2,6-dioxopiperidin-3-yl)isoindoline-1,3-dione]
< 100 nM | 59 nM | COc1cc(N2CCN(C3CCN(CC4CCN(c5ccc6c(c5)C(=O)N(C5CCC(=O)NC5=O)C6=O)CC4)CC3)CC2)c(-c2cnn(C)c2)cc1Nc1ncc(Cl)c(Nc2ccc3nccnc3c2P(C)(C)=O)n1 (centres unmarked) [Trifluoroacetate of compound 12, 5-(4-((4-(4-(4-((5-chloro-4-((5-(dimethylphosphoryl)quinoxalin-6-yl)amino)pyrimidin-2-yl)amino)-5-methoxy-2-(1-methyl-1H-pyrazol-4-yl)phenyl)piperazin-1-yl)piperidin-1-yl)methyl)piperidin-1-yl)-2-(2,6-dioxopiperidin-3-yl)isoindoline-1,3-dione]
< 100 nM | 39 nM | COc1cc(N2CCC3(CCN(CC4CCN(c5cc6c(cc5F)C(=O)N(C5CCC(=O)NC5=O)C6=O)CC4)CC3)CC2)c(-c2cnn(C)c2)cc1Nc1ncc(Br)c(Nc2ccc3nccnc3c2P(C)(C)=O)n1 (centres unmarked) [Compound 21, 5-(4-((9-(4-((5-bromo-4-((5-(dimethylphosphoryl)quinoxalin-6-yl)amino)pyrimidin-2-yl)amino)-5-methoxy-2-(1-methyl-1H-pyrazol-4-yl)phenyl)-3,9-diazaspiro[5.5]undecan-3-yl)methyl)piperidin-1-yl)-2-(2,6-dioxopiperidin-3-yl)-6-fluoroisoindoline-1,3-dione]
100 to 500 nM | 393 nM | COc1cc(N2CCC(CN3CCN(c4ccc(N5CCC(=O)NC5=O)cc4)CC3)CC2)c(-c2cnn(C)c2)cc1Nc1ncc(Cl)c(Nc2ccc(-c3ccccc3)cc2P(C)(C)=O)n1 [Compound 136, 1-(4-(4-((1-(4-((5-chloro-4-((3-(dimethylphosphoryl)-[1,1′-biphenyl]-4-yl)amino)pyrimidin-2-yl)amino)-5-methoxy-2-(1-methyl-1H-pyrazol-4-yl)phenyl)piperidin-4-yl)methyl)piperazin-1-yl)phenyl)dihydropyrimidine-2,4(1H,3H)-dione]
< 100 nM | 60 nM | COc1cc(N2CCC(N3CCN(c4ccc5c(c4)C(=O)N(C4CCC(=O)NC4=O)C5=O)CC3)CC2)c(-c2cnn(C)c2)cc1Nc1ncc(Br)c(Nc2ccccc2P(C)(C)=O)n1 (centres unmarked) [Compound 114, 5-(4-(1-(4-((5-bromo-4-((2-(dimethylphosphoryl)phenyl)amino)pyrimidin-2-yl)amino)-5-methoxy-2-(1-methyl-1H-pyrazol-4-yl)phenyl)piperidin-4-yl)piperazin-1-yl)-2-(2,6-dioxopiperidin-3-yl)isoindoline-1,3-dione]
< 100 nM | 80 nM | COc1cc(N2CCC(N3CCC(CN4CCN(c5ccc6c(c5)C(=O)N(C5CCC(=O)NC5=O)C6=O)CC4)CC3)CC2)c(-c2cnn(C)c2)cc1Nc1ncc(Br)c(Nc2ccc(-c3ccccc3)cc2P(C)(C)=O)n1 (centres unmarked) [Compound 43, 5-(4-((1′-(4-((5-bromo-4-((3-(dimethylphosphoryl)-[1,1′-biphenyl]-4-yl)amino)pyrimidin-2-yl)amino)-5-methoxy-2-(1-methyl-1H-pyrazol-4-yl)phenyl)-[1,4′-bipiperidin]-4-yl)methyl)piperazin-1-yl)-2-(2,6-dioxopiperidin-3-yl)isoindoline-1,3-dione]
< 100 nM | 29 nM | COc1cc(N2CCC(CN3CCN(c4ccc(NC5CCC(=O)NC5=O)cc4F)CC3)CC2)c(-c2cnn(C)c2)cc1Nc1ncc(Cl)c(Nc2ccccc2P(C)(C)=O)n1 (centres unmarked) [Compound 157, 3-((4-(4-((1-(4-((5-chloro-4-((2-(dimethylphosphoryl)phenyl)amino)pyrimidin-2-yl)amino)-5-methoxy-2-(1-methyl-1H-pyrazol-4-yl)phenyl)piperidin-4-yl)methyl)piperazin-1-yl)-3-fluorophenyl)amino)piperidine-2,6-dione]
